Earlier results in patent publication US20260248729A1, “NOVEL ORAL DOSAGE FORM” (Neon Healthcare Ltd, priority 2022, published 2026).

[1] = administered orally in the form of phenelzine sulfate

NNCCc1ccccc1 [Phenelzine, 2-phenylethylhydrazine]
Time to peak plasma concentration [1]: 43 min | half-life [1]: 11.6 h | major metabolites phenylacetic acid and parahydroxyphenylacetic acid recovered, of the excreted dose of phenelzine in the urine (over the course of 96 hours after single doses): about 73%
